Assay results: patent publication US20030086873A1, “Myocardial imaging agent and preparation method thereof” (priority 2001, published 2003)
Blank lines part the entries; values can stand above or below the molecule they belong to.

How the values were obtained:
[1] = Biological distribution in the bodies of Kunming mice after caudal vein injection; format: in vivo
Method: The complexes [^99mTc(CO)3(OH2)3]^+ and [^99mTc(CO)3(MIBI)3]^+ prepared in Example 1 were separately injected in the caudal vein of Kunming mice. The experiment was conducted on three mice within each time period, and the injection's activity was 925 KBq. The radioactivity of individual organs's tissue was measured at 5, 15, 30, and 60 minutes after the injection, and the results are represented by radioactive uptake rate per gram of tissue.
The results of the distribution of [^99mTc(CO)3(OH2)3]^+ in the mice's bodies are included in Tables 2; the results for [^99mTc(CO)3(MIBI)3]^+ are presented in Table 3. The value “% ID/g” is the percentage of the injection's total radioactivity that each gram of tissue accounts for i.e., the radioactive uptake rate per gram of tissue, with ID standing for “injected dose.”

[2] = Dynamic SPECT imaging and biological distribution in dogs after intravenous injection; format: in vivo; details: for Heart biological distribution / Kidneys biological distribution / Liver biological distribution / Lungs biological distribution: i.v.
Method: Dogs were intravenously injected with [^99mTc(CO)3(MIBI)3]^+ or [^99mTc(MIBI)6][…]at dose of […]. Immediately following injection, dynamic photography for up to 120 min was performed using a Toshiba GCA 7200A two-probe SPECT and a low energy parallel aperture regular collimator. Time—radioactivity curves were also collected for the heart, liver, lungs, and kidneys. Target/non-target radioactivity ratios were calculated, and fall body imaging was performed separately at different times. The biological distributions of the imaging agents in the body were analyzed. Vein blood samples were collected separately at different times, and the dynamics of the blood clearance was analyzed. Flat myocardial imaging was conducted separately at different times, with myocardial tomographic imaging at 120 minutes post injection.

Target/Non-Target Uptake Ratio Heart/Blood ([1]; 5 Minutes): 12.80
Target/Non-Target Uptake Ratio Heart/Liver ([1]; 5 Minutes): 0.94
Target/Non-Target Uptake Ratio Heart/Lungs ([1]; 5 Minutes): 2.87
Target/Non-Target Uptake Ratio Heart/Blood ([1]; 15 Minutes): 35.09
Target/Non-Target Uptake Ratio Heart/Liver ([1]; 15 Minutes): 0.76
Target/Non-Target Uptake Ratio Heart/Lungs ([1]; 15 Minutes): 6.08
Target/Non-Target Uptake Ratio Heart/Blood ([1]; 30 Minutes): 89.04
Target/Non-Target Uptake Ratio Heart/Liver ([1]; 30 Minutes): 0.90
Target/Non-Target Uptake Ratio Heart/Lungs ([1]; 30 Minutes): 9.07
Target/Non-Target Uptake Ratio Heart/Blood ([1]; 60 Minutes): 134.15
Target/Non-Target Uptake Ratio Heart/Liver ([1]; 60 Minutes): 1.04
Target/Non-Target Uptake Ratio Heart/Lungs ([1]; 60 Minutes): 12.25
Target/Non-Target Uptake Ratio Heart/Kidneys ([2]; 2 Minutes): 0.39
Target/Non-Target Uptake Ratio Heart/Liver ([2]; 2 Minutes): 0.83
Target/Non-Target Uptake Ratio Heart/Lungs ([2]; 2 Minutes): 2.35
Target/Non-Target Uptake Ratio Heart/Kidneys ([2]; 5 Minutes): 0.48
Target/Non-Target Uptake Ratio Heart/Liver ([2]; 5 Minutes): 0.83
Target/Non-Target Uptake Ratio Heart/Lungs ([2]; 5 Minutes): 2.48
Target/Non-Target Uptake Ratio Heart/Kidneys ([2]; 10 Minutes): 0.59
Target/Non-Target Uptake Ratio Heart/Liver ([2]; 10 Minutes): 0.77
Target/Non-Target Uptake Ratio Heart/Lungs ([2]; 10 Minutes): 2.66
Target/Non-Target Uptake Ratio Heart/Kidneys ([2]; 20 Minutes): 0.45
Target/Non-Target Uptake Ratio Heart/Liver ([2]; 20 Minutes): 0.85
Target/Non-Target Uptake Ratio Heart/Lungs ([2]; 20 Minutes): 2.8
Target/Non-Target Uptake Ratio Heart/Kidneys ([2]; 30 Minutes): 0.43
Target/Non-Target Uptake Ratio Heart/Liver ([2]; 30 Minutes): 0.86
Target/Non-Target Uptake Ratio Heart/Lungs ([2]; 30 Minutes): 2.68
Target/Non-Target Uptake Ratio Heart/Kidneys ([2]; 40 Minutes): 0.43
Target/Non-Target Uptake Ratio Heart/Liver ([2]; 40 Minutes): 0.87
Target/Non-Target Uptake Ratio Heart/Lungs ([2]; 40 Minutes): 2.7
Target/Non-Target Uptake Ratio Heart/Kidneys ([2]; 60 Minutes): 0.43
Target/Non-Target Uptake Ratio Heart/Liver ([2]; 60 Minutes): 0.84
Target/Non-Target Uptake Ratio Heart/Lungs ([2]; 60 Minutes): 2.84
Target/Non-Target Uptake Ratio Heart/Kidneys ([2]; 90 Minutes): 0.46
Target/Non-Target Uptake Ratio Heart/Liver ([2]; 90 Minutes): 0.8
Target/Non-Target Uptake Ratio Heart/Lungs ([2]; 90 Minutes): 2.84
Target/Non-Target Uptake Ratio Heart/Kidneys ([2]; 120 Minutes): 0.45
Target/Non-Target Uptake Ratio Heart/Liver ([2]; 120 Minutes): 0.8
Target/Non-Target Uptake Ratio Heart/Lungs ([2]; 120 Minutes): 2.73
Heart biological distribution ([2]; 20 Minutes): 3.2 % ID/g
Kidneys biological distribution ([2]; 20 Minutes): 14.3 % ID/g
Liver biological distribution ([2]; 20 Minutes): 21.0 % ID/g
Lungs biological distribution ([2]; 20 Minutes): 6.3 % ID/g
Heart biological distribution ([2]; 30 Minutes): 3.5 % ID/g
Kidneys biological distribution ([2]; 30 Minutes): 3.2 % ID/g
Liver biological distribution ([2]; 30 Minutes): 10.3 % ID/g
Lungs biological distribution ([2]; 30 Minutes): 6.5 % ID/g
Heart biological distribution ([2]; 40 Minutes): 2.9 % ID/g
Kidneys biological distribution ([2]; 40 Minutes): 12.3 % ID/g
Liver biological distribution ([2]; 40 Minutes): 24.4 % ID/g
Lungs biological distribution ([2]; 40 Minutes): 6.3 % ID/g
Heart biological distribution ([2]; 60 Minutes): 3.3 % ID/g
Kidneys biological distribution ([2]; 60 Minutes): 12.7 % ID/g
Liver biological distribution ([2]; 60 Minutes): 25.1 % ID/g
Lungs biological distribution ([2]; 60 Minutes): 5.5 % ID/g
Heart biological distribution ([2]; 90 Minutes): 3.2 % ID/g
Kidneys biological distribution ([2]; 90 Minutes): 13.2 % ID/g
Liver biological distribution ([2]; 90 Minutes): 22.8 % ID/g
Lungs biological distribution ([2]; 90 Minutes): 6.2 % ID/g
Heart biological distribution ([2]; 120 Minutes): 3.5 % ID/g
Kidneys biological distribution ([2]; 120 Minutes): 12.1 % ID/g
Liver biological distribution ([2]; 120 Minutes): 25.2 % ID/g
Lungs biological distribution ([2]; 120 Minutes): 5.2 % ID/g
Liver time-radioactivity curve relative to the myocardial curve ([2]; in words): higher than the myocardial curve
Molecule: [C-]#[N+]CC(C)(C)OC.[C-]#[N+]CC(C)(C)OC.[C-]#[N+]CC(C)(C)OC.[C-]#[N+]CC(C)(C)OC.[C-]#[N+]CC(C)(C)OC.[C-]#[N+]CC(C)(C)OC.[Tc] [[^99mTc(MIBI)6]^+, reference compound]

Blood radioactive uptake per gram of tissue ([1]; 5 Minutes after injection): 9.27 ± 1.13 % ID/g
Bones radioactive uptake per gram of tissue ([1]; 5 Minutes after injection): 2.82 ± 0.95 % ID/g
Brain radioactive uptake per gram of tissue ([1]; 5 Minutes after injection): 0.31 ± 0.09 % ID/g
Heart radioactive uptake per gram of tissue ([1]; 5 Minutes after injection): 2.68 ± 0.88 % ID/g
Kidneys radioactive uptake per gram of tissue ([1]; 5 Minutes after injection): 18.29 ± 4.22 % ID/g
Liver radioactive uptake per gram of tissue ([1]; 5 Minutes after injection): 10.33 ± 0.82 % ID/g
Lungs radioactive uptake per gram of tissue ([1]; 5 Minutes after injection): 6.53 ± 1.41 % ID/g
Muscles radioactive uptake per gram of tissue ([1]; 5 Minutes after injection): 1.47 ± 0.37 % ID/g
Spleen radioactive uptake per gram of tissue ([1]; 5 Minutes after injection): 2.02 ± 1.02 % ID/g
Blood radioactive uptake per gram of tissue ([1]; 15 Minutes after injection): 6.04 ± 0.73 % ID/g
Bones radioactive uptake per gram of tissue ([1]; 15 Minutes after injection): 1.68 ± 0.22 % ID/g
Brain radioactive uptake per gram of tissue ([1]; 15 Minutes after injection): 0.27 ± 0.03 % ID/g
Heart radioactive uptake per gram of tissue ([1]; 15 Minutes after injection): 2.39 ± 0.66 % ID/g
Kidneys radioactive uptake per gram of tissue ([1]; 15 Minutes after injection): 14.25 ± 1.78 % ID/g
Liver radioactive uptake per gram of tissue ([1]; 15 Minutes after injection): 11.95 ± 0.66 % ID/g
Lungs radioactive uptake per gram of tissue ([1]; 15 Minutes after injection): 5.38 ± 0.76 % ID/g
Muscles radioactive uptake per gram of tissue ([1]; 15 Minutes after injection): 1.46 ± 0.48 % ID/g
Spleen radioactive uptake per gram of tissue ([1]; 15 Minutes after injection): 2.38 ± 0.37 % ID/g
Blood radioactive uptake per gram of tissue ([1]; 30 Minutes after injection): 5.79 ± 0.66 % ID/g
Bones radioactive uptake per gram of tissue ([1]; 30 Minutes after injection): 2.38 ± 0.54 % ID/g
Brain radioactive uptake per gram of tissue ([1]; 30 Minutes after injection): 0.29 ± 0.06 % ID/g
Heart radioactive uptake per gram of tissue ([1]; 30 Minutes after injection): 2.39 ± 0.56 % ID/g
Kidneys radioactive uptake per gram of tissue ([1]; 30 Minutes after injection): 13.88 ± 1.02 % ID/g
Liver radioactive uptake per gram of tissue ([1]; 30 Minutes after injection): 10.83 ± 1.68 % ID/g
Lungs radioactive uptake per gram of tissue ([1]; 30 Minutes after injection): 5.37 ± 0.78 % ID/g
Muscles radioactive uptake per gram of tissue ([1]; 30 Minutes after injection): 1.66 ± 0.61 % ID/g
Spleen radioactive uptake per gram of tissue ([1]; 30 Minutes after injection): 2.94 ± 0.69 % ID/g
Blood radioactive uptake per gram of tissue ([1]; 60 Minutes after injection): 4.50 ± 0.72 % ID/g
Bones radioactive uptake per gram of tissue ([1]; 60 Minutes after injection): 1.65 ± 0.12 % ID/g
Brain radioactive uptake per gram of tissue ([1]; 60 Minutes after injection): 0.22 ± 0.03 % ID/g
Heart radioactive uptake per gram of tissue ([1]; 60 Minutes after injection): 2.08 ± 0.31 % ID/g
Kidneys radioactive uptake per gram of tissue ([1]; 60 Minutes after injection): 12.28 ± 2.32 % ID/g
Liver radioactive uptake per gram of tissue ([1]; 60 Minutes after injection): 10.73 ± 0.90 % ID/g
Lungs radioactive uptake per gram of tissue ([1]; 60 Minutes after injection): 5.19 ± 1.18 % ID/g
Muscles radioactive uptake per gram of tissue ([1]; 60 Minutes after injection): 1.37 ± 0.80 % ID/g
Spleen radioactive uptake per gram of tissue ([1]; 60 Minutes after injection): 3.20 ± 0.80 % ID/g
Specific concentration in tissues / heart ([1]; in words): no specific concentration
Radioactive retention ([1]; within 60 minutes, in words): good radioactive retention
Molecule: [^99mTc(CO)3(OH2)3]^+ [reference compound]
